Data on five compounds can be found in patent US11358949B2, “Carbamate and urea compounds as multikinase inhibitors” (ANGEX PHARMACEUTICAL, INC., priority 2017, dated 2022).

Bounds are passed on as bounds.

One assay addresses FMS (Homo sapiens, UniProt P07333). Nature of the assay: HotSpot Kinase Assay, FMS.
For a further assay, the target named is T1, AXL (Homo sapiens, UniProt P30530).
T1 sequence (P30530 26-894): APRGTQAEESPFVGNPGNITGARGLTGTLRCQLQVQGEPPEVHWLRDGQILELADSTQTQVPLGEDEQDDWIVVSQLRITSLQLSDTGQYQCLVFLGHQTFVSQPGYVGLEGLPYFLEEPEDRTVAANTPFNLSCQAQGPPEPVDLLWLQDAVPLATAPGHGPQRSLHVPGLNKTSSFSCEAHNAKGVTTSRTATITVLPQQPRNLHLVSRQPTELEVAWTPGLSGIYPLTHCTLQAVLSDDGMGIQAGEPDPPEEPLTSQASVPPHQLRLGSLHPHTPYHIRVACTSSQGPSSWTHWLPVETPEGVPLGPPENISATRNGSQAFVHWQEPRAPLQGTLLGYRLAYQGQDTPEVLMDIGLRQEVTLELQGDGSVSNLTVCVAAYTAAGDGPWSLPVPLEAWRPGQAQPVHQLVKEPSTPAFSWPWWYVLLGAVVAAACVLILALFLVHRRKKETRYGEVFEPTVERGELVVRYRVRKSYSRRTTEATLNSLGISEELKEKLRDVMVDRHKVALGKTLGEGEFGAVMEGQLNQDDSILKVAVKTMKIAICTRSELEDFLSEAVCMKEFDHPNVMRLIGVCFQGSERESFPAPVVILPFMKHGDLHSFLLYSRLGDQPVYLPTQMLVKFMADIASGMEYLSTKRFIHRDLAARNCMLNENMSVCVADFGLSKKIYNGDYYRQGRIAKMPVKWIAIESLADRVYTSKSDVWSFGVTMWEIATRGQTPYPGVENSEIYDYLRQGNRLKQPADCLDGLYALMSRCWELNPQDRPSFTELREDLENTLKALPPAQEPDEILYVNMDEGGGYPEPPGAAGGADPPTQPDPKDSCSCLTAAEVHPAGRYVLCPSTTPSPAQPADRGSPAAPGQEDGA
Nature of the assay: HotSpot Kinase Assay, AXL.

The target in another assay is EPHA2 (Homo sapiens, UniProt P29317). The assay can be described thus: HotSpot Kinase Assay, EPHA2.
The next assay deals with KDR/VEGFR2 (Homo sapiens, UniProt P35968). Nature of the assay: HotSpot Kinase Assay, KDR/VEGFR2.
The target of the next assay is c-MET (Homo sapiens, UniProt P08581). The assay can be described thus: HotSpot Kinase Assay, c-MET.
A further assay addresses LOK/STK10 (Homo sapiens, UniProt O94804). The assay can be described thus: HotSpot Kinase Assay, LOK/STK10.
For a further assay, the target named is DDR1 (Homo sapiens, UniProt Q08345). The assay can be described thus: HotSpot Kinase Assay, DDR1.
Another assay addresses T2, c-MER (Homo sapiens, UniProt Q12866).
T2 sequence (Q12866 21-999): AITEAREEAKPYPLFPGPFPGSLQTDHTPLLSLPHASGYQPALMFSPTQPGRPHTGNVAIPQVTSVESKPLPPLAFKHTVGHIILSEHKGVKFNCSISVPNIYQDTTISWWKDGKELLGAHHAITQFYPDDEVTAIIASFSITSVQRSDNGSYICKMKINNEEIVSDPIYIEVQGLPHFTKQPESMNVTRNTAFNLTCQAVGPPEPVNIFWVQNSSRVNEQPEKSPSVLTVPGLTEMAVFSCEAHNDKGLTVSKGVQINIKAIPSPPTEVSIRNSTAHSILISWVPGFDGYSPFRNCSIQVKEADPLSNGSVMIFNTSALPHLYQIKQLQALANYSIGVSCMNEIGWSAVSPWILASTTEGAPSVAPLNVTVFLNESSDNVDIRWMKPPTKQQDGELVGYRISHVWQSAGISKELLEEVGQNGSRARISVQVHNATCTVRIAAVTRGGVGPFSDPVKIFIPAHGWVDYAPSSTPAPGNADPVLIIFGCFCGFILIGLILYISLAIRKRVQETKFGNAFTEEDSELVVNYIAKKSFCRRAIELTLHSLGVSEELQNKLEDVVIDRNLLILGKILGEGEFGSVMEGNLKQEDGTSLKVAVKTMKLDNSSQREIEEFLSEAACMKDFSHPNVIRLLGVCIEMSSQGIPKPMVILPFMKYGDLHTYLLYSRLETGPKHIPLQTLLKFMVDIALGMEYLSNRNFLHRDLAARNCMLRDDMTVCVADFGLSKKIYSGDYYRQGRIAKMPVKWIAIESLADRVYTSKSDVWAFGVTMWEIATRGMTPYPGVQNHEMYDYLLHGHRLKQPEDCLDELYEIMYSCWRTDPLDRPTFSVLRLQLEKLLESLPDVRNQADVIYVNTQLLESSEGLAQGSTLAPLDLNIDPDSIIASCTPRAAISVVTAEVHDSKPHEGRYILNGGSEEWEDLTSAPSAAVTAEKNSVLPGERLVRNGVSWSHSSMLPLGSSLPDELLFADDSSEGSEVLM
Nature of the assay: HotSpot Kinase Assay, c-MER.

The target of another assay is c-Kit (Homo sapiens, UniProt P10721). The assay can be described thus: HotSpot Kinase Assay, c-Kit.
The target in the next assay is T3, TYRO3/SKY (Homo sapiens, UniProt Q06418).
T3 sequence (Q06418 41-890): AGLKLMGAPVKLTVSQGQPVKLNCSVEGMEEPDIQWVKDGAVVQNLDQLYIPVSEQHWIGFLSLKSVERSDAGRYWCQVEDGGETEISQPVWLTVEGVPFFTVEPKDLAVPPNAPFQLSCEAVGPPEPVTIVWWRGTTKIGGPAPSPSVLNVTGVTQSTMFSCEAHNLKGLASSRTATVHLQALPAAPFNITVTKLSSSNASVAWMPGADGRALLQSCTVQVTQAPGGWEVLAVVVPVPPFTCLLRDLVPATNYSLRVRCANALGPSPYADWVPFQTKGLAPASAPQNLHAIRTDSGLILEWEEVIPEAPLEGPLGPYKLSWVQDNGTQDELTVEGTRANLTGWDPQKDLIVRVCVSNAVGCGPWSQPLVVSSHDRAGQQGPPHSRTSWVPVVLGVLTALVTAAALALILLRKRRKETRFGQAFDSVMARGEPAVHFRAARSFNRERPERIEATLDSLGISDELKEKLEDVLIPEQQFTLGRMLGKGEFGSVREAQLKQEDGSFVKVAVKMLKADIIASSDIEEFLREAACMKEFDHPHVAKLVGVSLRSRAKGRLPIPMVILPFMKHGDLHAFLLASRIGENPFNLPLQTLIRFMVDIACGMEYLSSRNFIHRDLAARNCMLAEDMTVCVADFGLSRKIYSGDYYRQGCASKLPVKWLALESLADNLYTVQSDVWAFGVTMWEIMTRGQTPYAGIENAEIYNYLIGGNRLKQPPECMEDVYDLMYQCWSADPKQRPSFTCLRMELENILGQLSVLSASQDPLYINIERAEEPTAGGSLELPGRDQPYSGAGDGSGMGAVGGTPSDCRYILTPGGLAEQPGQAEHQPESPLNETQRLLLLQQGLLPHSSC
The assay can be described thus: HotSpot Kinase Assay, TYRO3/SKY.

Chain of FMS (P07333 20-972): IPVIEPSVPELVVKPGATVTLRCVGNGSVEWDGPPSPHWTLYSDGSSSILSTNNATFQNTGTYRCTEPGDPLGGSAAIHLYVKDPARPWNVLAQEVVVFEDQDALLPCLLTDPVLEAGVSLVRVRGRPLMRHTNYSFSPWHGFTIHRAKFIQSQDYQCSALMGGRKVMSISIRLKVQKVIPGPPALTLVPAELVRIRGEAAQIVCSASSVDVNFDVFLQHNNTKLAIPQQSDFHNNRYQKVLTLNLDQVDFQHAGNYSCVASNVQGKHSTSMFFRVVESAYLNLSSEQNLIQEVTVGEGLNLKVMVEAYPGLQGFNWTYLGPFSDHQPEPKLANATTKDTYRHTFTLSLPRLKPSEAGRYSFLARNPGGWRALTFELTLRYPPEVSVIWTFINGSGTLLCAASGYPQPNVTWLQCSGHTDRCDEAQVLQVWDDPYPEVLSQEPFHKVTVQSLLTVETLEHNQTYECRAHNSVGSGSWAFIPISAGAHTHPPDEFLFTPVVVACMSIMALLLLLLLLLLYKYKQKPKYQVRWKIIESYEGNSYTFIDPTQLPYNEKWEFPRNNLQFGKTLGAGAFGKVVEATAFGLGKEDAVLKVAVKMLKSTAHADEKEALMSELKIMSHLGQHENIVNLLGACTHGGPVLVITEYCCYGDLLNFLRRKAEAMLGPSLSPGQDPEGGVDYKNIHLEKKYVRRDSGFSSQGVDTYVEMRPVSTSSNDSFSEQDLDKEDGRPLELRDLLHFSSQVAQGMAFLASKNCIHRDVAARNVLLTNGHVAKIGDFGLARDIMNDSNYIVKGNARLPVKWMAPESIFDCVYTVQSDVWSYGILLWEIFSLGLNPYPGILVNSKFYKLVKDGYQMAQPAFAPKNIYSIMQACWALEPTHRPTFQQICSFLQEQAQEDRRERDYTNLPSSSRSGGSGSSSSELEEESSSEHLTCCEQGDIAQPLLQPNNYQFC
Chain of DDR1 (Q08345 19-913): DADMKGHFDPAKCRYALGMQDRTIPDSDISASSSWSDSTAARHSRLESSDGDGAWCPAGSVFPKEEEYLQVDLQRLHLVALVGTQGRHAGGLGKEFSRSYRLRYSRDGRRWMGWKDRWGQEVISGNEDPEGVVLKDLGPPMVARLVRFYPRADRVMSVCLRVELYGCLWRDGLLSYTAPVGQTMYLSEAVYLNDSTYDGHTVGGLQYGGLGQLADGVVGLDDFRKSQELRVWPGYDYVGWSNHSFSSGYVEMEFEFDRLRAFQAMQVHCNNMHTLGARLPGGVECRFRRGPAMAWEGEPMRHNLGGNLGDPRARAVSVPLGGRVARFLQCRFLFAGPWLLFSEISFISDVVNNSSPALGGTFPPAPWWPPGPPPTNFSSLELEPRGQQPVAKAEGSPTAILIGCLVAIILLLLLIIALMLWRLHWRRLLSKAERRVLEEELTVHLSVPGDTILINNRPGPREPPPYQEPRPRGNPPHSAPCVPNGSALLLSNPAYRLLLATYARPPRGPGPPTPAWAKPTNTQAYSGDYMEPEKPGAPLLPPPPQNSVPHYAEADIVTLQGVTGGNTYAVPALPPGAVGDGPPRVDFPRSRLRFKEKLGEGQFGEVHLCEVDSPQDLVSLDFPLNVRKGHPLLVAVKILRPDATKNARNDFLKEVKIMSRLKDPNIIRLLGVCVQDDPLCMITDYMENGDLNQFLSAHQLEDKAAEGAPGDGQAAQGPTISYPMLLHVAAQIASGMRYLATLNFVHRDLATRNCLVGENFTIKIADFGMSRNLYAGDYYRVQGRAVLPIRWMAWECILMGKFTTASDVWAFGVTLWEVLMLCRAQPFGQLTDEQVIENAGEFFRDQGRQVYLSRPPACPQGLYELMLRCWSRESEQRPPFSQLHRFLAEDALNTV
Chain of c-Kit (P10721 26-976): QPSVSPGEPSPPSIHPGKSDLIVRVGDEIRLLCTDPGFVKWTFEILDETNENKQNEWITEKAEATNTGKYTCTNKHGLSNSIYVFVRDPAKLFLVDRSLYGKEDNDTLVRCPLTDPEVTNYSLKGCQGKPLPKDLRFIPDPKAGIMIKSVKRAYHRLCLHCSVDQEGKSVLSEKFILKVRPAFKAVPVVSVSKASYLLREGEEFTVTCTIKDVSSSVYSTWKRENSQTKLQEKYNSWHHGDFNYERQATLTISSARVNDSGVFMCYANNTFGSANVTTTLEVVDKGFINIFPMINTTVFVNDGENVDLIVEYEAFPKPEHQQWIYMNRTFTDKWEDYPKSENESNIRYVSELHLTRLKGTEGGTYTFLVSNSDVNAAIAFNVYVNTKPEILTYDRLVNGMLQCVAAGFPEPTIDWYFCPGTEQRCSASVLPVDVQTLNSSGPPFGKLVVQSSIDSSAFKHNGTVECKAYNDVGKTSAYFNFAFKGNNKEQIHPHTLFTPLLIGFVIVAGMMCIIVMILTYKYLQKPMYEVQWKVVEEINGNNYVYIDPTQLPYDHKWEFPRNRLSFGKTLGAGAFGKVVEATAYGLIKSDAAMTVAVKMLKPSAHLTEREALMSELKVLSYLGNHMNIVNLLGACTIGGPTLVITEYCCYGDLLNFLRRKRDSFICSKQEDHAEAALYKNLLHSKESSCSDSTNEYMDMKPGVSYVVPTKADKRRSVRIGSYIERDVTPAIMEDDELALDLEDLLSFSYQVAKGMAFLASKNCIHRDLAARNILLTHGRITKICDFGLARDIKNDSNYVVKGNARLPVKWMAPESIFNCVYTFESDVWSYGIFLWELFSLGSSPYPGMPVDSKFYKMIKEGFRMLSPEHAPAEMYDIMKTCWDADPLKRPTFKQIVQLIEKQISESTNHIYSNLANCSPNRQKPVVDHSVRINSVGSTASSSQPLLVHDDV
Chain of c-MET (P08581 25-1390): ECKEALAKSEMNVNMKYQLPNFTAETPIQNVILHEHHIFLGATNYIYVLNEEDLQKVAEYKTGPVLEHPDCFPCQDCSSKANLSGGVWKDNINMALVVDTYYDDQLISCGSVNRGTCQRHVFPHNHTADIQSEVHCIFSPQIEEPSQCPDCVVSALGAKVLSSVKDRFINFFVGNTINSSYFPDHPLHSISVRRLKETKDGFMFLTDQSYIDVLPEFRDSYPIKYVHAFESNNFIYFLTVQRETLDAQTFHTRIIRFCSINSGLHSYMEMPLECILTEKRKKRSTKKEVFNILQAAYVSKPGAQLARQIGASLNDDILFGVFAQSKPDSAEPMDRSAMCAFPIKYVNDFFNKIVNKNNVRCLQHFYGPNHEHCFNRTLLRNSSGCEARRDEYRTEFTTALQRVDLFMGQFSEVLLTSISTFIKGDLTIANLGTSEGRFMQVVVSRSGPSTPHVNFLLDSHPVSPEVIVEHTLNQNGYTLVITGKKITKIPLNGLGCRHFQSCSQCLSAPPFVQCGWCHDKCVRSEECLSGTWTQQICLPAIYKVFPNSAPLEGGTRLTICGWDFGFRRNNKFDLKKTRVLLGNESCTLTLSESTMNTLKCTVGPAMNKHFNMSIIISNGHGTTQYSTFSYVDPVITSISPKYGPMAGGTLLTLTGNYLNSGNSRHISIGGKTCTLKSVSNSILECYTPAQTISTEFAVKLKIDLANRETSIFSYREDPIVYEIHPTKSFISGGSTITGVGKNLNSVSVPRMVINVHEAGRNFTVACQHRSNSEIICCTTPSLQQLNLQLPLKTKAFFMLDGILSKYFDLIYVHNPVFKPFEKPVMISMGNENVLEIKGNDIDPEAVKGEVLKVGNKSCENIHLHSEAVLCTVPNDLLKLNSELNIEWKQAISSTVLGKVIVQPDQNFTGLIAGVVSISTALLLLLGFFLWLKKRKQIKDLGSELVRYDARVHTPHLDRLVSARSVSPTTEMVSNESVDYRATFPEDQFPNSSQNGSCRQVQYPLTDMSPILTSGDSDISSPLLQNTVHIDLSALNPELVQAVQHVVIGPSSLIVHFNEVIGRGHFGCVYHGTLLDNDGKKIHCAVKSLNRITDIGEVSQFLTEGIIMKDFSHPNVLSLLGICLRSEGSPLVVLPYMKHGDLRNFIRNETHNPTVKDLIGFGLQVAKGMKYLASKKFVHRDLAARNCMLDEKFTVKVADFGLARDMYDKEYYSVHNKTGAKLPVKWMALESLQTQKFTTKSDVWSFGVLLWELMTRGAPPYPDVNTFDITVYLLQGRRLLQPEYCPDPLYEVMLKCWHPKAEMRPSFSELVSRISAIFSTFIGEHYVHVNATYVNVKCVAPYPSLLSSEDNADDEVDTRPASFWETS
Chain of EPHA2 (P29317 24-976): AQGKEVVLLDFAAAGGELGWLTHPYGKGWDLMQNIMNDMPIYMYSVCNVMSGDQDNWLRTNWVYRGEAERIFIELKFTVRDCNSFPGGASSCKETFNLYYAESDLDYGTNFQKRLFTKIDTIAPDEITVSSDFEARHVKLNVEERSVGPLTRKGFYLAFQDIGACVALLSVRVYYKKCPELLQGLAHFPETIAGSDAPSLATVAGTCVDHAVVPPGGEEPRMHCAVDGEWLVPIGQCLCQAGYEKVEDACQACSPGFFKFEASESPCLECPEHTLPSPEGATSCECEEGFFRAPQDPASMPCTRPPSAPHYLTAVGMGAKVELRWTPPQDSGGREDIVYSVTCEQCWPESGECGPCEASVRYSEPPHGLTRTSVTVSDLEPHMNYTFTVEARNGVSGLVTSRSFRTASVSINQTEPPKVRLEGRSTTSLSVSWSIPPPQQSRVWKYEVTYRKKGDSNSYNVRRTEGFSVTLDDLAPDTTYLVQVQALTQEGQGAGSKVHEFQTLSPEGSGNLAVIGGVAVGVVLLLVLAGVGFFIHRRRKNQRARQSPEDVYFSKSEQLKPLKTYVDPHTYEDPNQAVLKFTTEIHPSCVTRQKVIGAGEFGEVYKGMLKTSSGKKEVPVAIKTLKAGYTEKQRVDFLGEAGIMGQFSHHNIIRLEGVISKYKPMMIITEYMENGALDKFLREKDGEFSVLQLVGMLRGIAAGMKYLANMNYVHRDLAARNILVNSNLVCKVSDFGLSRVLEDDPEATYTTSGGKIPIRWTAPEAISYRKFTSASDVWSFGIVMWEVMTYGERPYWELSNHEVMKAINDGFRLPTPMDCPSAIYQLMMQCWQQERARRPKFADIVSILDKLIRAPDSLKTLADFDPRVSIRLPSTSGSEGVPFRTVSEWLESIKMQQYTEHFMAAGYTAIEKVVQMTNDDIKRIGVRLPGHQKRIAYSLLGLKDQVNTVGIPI
Procedure for FMS: (§1) Specifically, for each reaction, kinase and substrate were mixed in a pH 7.5 buffer containing 20 mM HEPES, 10 mM MgCl2, 1 mM EGTA [Ethylene glycol-bis(2-aminoethylether)-N,N,N′,N′-tetraacetic acid], 0.02% Brij35, 0.02 mg/mL BSA (Bovine Serum Albumin), 0.1 mM Na3VO4, 2 mM DTT, and 1% DMSO. Compounds were then added to each reaction mixture. After a 20-min incubation, ATP (Sigma-Aldrich) and [γ-^33P] ATP (PerkinElmer) were added at a final total concentration of 100 μM. Reactions were carried out at room temperature for 2 hours and spotted onto P81 ion exchange cellulose chromatography paper (Whatman). […] The percent remaining kinase activity relative to a vehicle-containing (DMSO) kinase reaction was calculated for each kinase/inhibitor pair. […] IC50 values were calculated using Prism 5 (GraphPad).
Procedure for LOK/STK10: as §1
Procedure for c-Kit: as §1
Procedure for c-MER: as §1
Procedure for c-MET: as §1

As to `COc1cc2c(Oc3ccc(NC(=O)C4(C(=O)Nc5ccc(F)cc5)CC4)cc3F)ccnc2cc1OC(=O)N1CCN(C)C[C@H]1C` [Compound 3-5, 4-(2-fluoro-4-(1-((4-fluorophenyl)carbamoyl)cyclopropane-1-carboxamido)phenoxy)-6-methoxyquinolin-7-yl (R)-2,4-dimethylpiperazine-1-carboxylate], the IC50 against FMS was 0.1 to 1 µM; against AXL it was under 0.1 µM; against EPHA2 it was under 0.1 µM; at KDR/VEGFR2, under 0.1 µM; at c-MET, under 0.1 µM; against LOK/STK10, 0.1 to 1 µM. The IC50 was under 0.1 µM against DDR1, under 0.1 µM against c-MER, under 0.1 µM against c-Kit and 0.1 to 1 µM against TYRO3/SKY.
On to `COc1cc2c(Oc3ccc(NC(=O)C4(C(=O)Nc5ccc(F)cc5)CC4)cc3)ccnc2cc1N1CCNC1=O` [Compound 10-2], for which the half-maximal inhibitory concentration (IC50) on FMS is under 0.1 µM; at AXL, under 0.1 µM; at EPHA2, 0.1 to 1 µM; against KDR/VEGFR2, 0.1 to 1 µM; against c-MET, under 0.1 µM; at LOK/STK10, 0.1 to 1 µM. Besides, the IC50 was under 0.1 µM against DDR1, under 0.1 µM at c-MER, under 0.1 µM against c-Kit and 0.1 to 1 µM on TYRO3/SKY.
In the case of `COc1cc2c(Oc3ccc(NC(=O)C4(C(=O)Nc5ccc(F)cc5)CC4)cc3)ccnc2cc1OC(=O)N1CC[C@@H](O)C1` [Compound 2-4], the IC50 on FMS is 0.1 to 1 µM; at AXL it was under 0.1 µM; at EPHA2 it was 0.1 to 1 µM; against KDR/VEGFR2, over 1 µM; against c-MET, under 0.1 µM; against LOK/STK10, 0.1 to 1 µM. For the same compound, the IC50 against DDR1 was under 0.1 µM; on c-MER, under 0.1 µM; at c-Kit, under 0.1 µM; on TYRO3/SKY, over 1 µM.
`COc1cc2c(Oc3ccc(NC(=O)C4(C(=O)Nc5ccc(F)cc5)CC4)cc3)ncnc2cc1OC(=O)N1CCNC[C@H]1C` [Compound 8-5]: the IC50 against FMS is 0.1 to 1 µM; against AXL, 0.1 to 1 µM; at EPHA2 it was over 1 µM; against KDR/VEGFR2, over 1 µM; on c-MET, 0.1 to 1 µM; on LOK/STK10, over 1 µM. The IC50 at DDR1 was under 0.1 µM; at c-MER, 0.1 to 1 µM; against c-Kit, under 0.1 µM; on TYRO3/SKY, 0.1 to 1 µM.
Consider `COc1cc2nccc(Oc3ccc(NC(=O)C4(C(=O)Nc5ccc(F)cc5)CC4)cc3)c2cc1OC(=O)N1[C@H](C)CNC[C@@H]1C` [Compound 7-4], for which the IC50 on FMS was under 0.1 µM; against AXL, under 0.1 µM; against EPHA2 it was 0.1 to 1 µM; at KDR/VEGFR2 it was under 0.1 µM; at c-MET it was under 0.1 µM; against LOK/STK10 it was 0.1 to 1 µM. The concentration for half-maximal inhibition (IC50) against DDR1, against c-MER, on c-Kit and on TYRO3/SKY was under 0.1 µM each time.

In general, IC50 refers to the concentration at which inhibition is half-maximal. Read a low IC50 as greater potency in that assay.
